PMC7956620 (Molecules, 2021)
Substitutions are numbered along the chain they refer to.

Columns and labels:
Assay type in all cases: cell-based
Conditions in all cases: 100 µM chanoclavine, read-out: Inhibition Percentage (%)
[1] = target: T1, 5-HT3A receptor I71A mutant (Homo sapiens, UniProt P46098, I66A); test: two-electrode voltage clamp, I71A mutant receptor in Xenopus oocytes
T1 construct: host or cells: Xenopus laevis oocytes injected with in vitro transcribed mRNA
T1 sequence (P46098 24-478 I66A): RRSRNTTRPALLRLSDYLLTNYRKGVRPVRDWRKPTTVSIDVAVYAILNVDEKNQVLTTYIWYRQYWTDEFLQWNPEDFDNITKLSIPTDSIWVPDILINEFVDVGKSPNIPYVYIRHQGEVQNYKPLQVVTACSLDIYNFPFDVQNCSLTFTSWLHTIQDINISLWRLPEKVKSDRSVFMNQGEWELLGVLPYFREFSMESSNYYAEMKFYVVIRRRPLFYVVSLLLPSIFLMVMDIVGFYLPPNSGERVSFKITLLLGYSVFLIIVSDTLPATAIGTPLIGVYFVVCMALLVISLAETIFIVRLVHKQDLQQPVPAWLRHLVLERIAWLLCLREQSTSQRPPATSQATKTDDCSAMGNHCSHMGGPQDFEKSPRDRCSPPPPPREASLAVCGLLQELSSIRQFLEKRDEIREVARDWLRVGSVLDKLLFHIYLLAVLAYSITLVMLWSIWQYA
Protocol: (§1) The site-directed mutation of one or two amino acids was performed using sense and antisense primers and Pfu polymerase (QuickChange Site-Directed Mutagenesis Kit; Agilent, Santa Clara, CA, USA) and amplified by polymerase chain reaction (PCR) to increase the target domain. After removing the existing methylated cDNA using Dpn Ⅰ, the PCR products were transformed into Escherichia coli strain DH5α. The cDNA of the 5-HT3A receptor was linearized by Xho Ⅰ at the end of the multi-cloning site, followed by transcription using T7 polymerase and a transcription kit (mMESSAGE mMACHINE T7 Transcription Kit; Thermo Fisher Scientific, Waltham, MA, USA). […]
(§2) To isolate oocytes, female Xenopus laevis were put into a container filled with ice and left for about one hour. […] When the Xenopus oocytes were ready for injection, 50 ng of mRNA was injected with a nanoliter injector (Drummond Scientific, Vernon Hills, IL, USA). […]
(§3) The oocytes in which mRNA was expressed during the incubation period allowed for the estimation of channel or receptor properties for observing drug and ligand potential interactions using a two-electrode voltage clamp (OC-725C; Warner Instruments, Hamden, CT, USA) and Digidata (1322A; Molecular Devices, Sunnyvale, CA, USA). […] The voltage and current electrodes were filled with 3 M KCl (0.3–0.7 MΩ) and analyzed at a −80 mV holding potential. […]

[2] = target: T2, 5-HT3A receptor I139A mutant (Homo sapiens, UniProt P46098, I134A/I139A); test: two-electrode voltage clamp, I139A mutant receptor in Xenopus oocytes
T2 construct: host or cells: Xenopus laevis oocytes injected with in vitro transcribed mRNA
T2 sequence (P46098 24-478 I134A/I139A): T1 sequence (P46098 24-478 I66A) with A43I, I111A, I116A
Protocol: as §1, §2, §3

[3] = target: T3, 5-HT3A receptor F130A mutant (Homo sapiens, UniProt P46098, F125A); test: two-electrode voltage clamp, F130A mutant receptor in Xenopus oocytes
T3 construct: host or cells: Xenopus laevis oocytes injected with in vitro transcribed mRNA
T3 sequence (P46098 24-478 F125A): T1 sequence (P46098 24-478 I66A) with A43I, F102A
Protocol: as §1, §2, §3

## CN[C@@H]1Cc2c[nH]c3cccc(c23)[C@H]1/C=C(\C)CO [chanoclavine]
[1]
  inhibition at 100 µM: 62.7 ± 3.1%
[2]
  inhibition at 100 µM: 92.8 ± 4.9%
[3]
  inhibition at 100 µM: 9.36 ± 4.3%
